Legend:
[1] = tested on: arachidonic acid (ferrous ion dependent peroxidation); assay: inhibition of the ferrous ion dependent peroxidation of arachidonic acid; assay type: biochemical; details: Fe2+ dependent peroxidation of arachidonic acid
Description: 2. The inhibition of the ferrous ion dependent peroxidation of arachidonic acid was also measured by the method of J. M. Braughler et al. [J. Biol. Chem. 262, 10438 (1987)] and J. A. Buege and S. D. Aust [Methods in Enzymology 52, 302 (1978)]. The IC50 values (expressed in micromols) of some compounds of the invention, further those of the reference compounds determined in this test are shown in Table 2.

[2] = tested on: NADPH dependent lipid peroxidation; assay: inhibition of the NADPH dependent lipid peroxidation; assay type: biochemical
Description: 3. Inhibiton of the NADPH dependent lipid peroxidation was measured according to T. J. Player and A. A. Horton [J. Neurochem. 37, 422 (1981)] and Z. Duniec [Biochem. Pharmacol. 32, 2283 (1983)]. The IC50 values (expressed in micromols) of some compounds of the invention, further those of the reference compounds determined in this test are given in Table 3.

[3] = tested on: rat brain homogenate (ferrous ion dependent lipid peroxidation); assay: ferrous ion dependent lipid peroxidation inhibitory activity on rat brain homogenate (thiobarbituric acid reactive substances); assay type: biochemical; details: Fe2+ dependent lipid peroxidation, TBARS
Description: 1. The ferrous ion dependent lipid peroxidation inhibitory activity was measured on rat brain homogenate by using the method descibed by J. M. Braughler et al., [J. Biol. Chem. 262, 10438 (1987)] and J. A. Buege and S. D. […] The IC50 value is defined as the concentration of a test substance which reduces by 50% the amount of the thiobarbituric acid reactive substances (chiefly malondialdehyde) considered to be a characteristic parameter of lipid peroxidation.

[4] = tested on: ischemia induced weight increase of the small intestine; assay: inhibition of ischemia induced weight increase of a definite section in the small intestine of rats; assay type: in vivo; details: Rattus norvegicus, 25 mg/kg oral
Description: 2. […] The percentage of inhibition observed after administration of a 25 mg/kg oral dose of the compounds of the invention or of the reference compounds is shown in Table 5.

acute brain injury = assay: inhibition of acute brain injury of mice (improvement in the neurological state); assay type: in vivo; details: intravenous
Text: 1. […] 68, 456 (1988)]. The doses of the test compounds administered by the intravenous route and the percentage of improvement in the neurological state are summarized in Table 4.

acute toxicity in rats = assay type: in vivo; details: rat, in vivo, oral

SMILES | IC50 [1] | IC50 [3] | inhibition in vivo at 25 mg/kg [4] | further results
Cc1cc(C(C)(C)C)c(O)c(C(C)(C)C)c1 [BHT, 3,5-di(tert-butyl)-4-hydroxytoluene, reference compound] | > 100 µM | 1 µM | – | IC50 [2]: 2 µM
C=CCCCCCCCCC(=O)N1CCN(c2cc(N)nc(N)n2)CC1 [Example 3, 1-(10-Undecenoyl)-4-(2,6-diamino-4-pyrimidinyl)-piperazine] | – | 52 µM | 31% | –
CCCCCCCCCCCCCCCCCCN1CCN(c2cc(N)nc(N)n2)CC1 [Example 4] | – | – | 46% | –
CCCCCCCCCCCCCCCCCC(=O)N1CCCN(c2cc(N3CCCC3)nc(N3CCCC3)n2)CC1 [Example 6] | – | – | 25% | –
CCCCCCCCCCCCCCCCCC(=O)N1CCN(c2cc(N)nc(N)n2)CC1 [Example 7] | – | – | 34% | –
Nc1cc(N2CCN(C(c3ccccc3)(c3ccccc3)c3ccccc3)CC2)nc(N)n1 [Example 9, 1-Trityl-4-(2,6-diamino-4-pyrimidinyl)piperazine] | – | 51 µM | 37% | –
c1ccc(C(c2ccccc2)(c2ccccc2)N2CCCN(c3cc(N4CCCC4)nc(N4CCCC4)n3)CC2)cc1 [Example 11] | – | – | 57% | –
Nc1cc(N2CCN(C(c3ccccc3)(c3ccccc3)c3ccccc3Cl)CC2)nc(N)n1 [Example 12] | – | 18 µM | 52% | Improvement (in the neurological state) (acute brain injury; 10 mg/kg): 46%
Nc1nc2nc(N3CCN(C(c4ccccc4)(c4ccccc4)c4ccccc4Cl)CC3)nc(N)c2nc1-c1ccccc1 [Example 15] | – | – | 32% | –
Nc1nc(N)c2nc(C(=O)N3CCN(C(c4ccccc4)(c4ccccc4)c4ccccc4Cl)CC3)c(N)nc2n1 [Example 16] | – | – | 45% | –
O=c1[nH]ncc(N2CCN(C34CC5CC(CC(C5)C3)C4)CC2)c1Cl [Example 18, 1-(1-Adamantyl)-4-(4-chloro-3-oxo-2,3-dihydro-5-pyridazinyl)piperazine] | – | – | 31% | –
Nc1cc(N2CCN(CC(O)COc3cccc4ccccc34)CC2)nc(N)n1 (stereo not drawn) [Example 20, 1-[2-Hydroxy-3-(1-naphthyloxy)-propyl]-4-(2,6-diamino-4-pyrimidinyl)piperazine] | – | 94 µM | 28% | –
OC(COc1cccc2ccccc12)CN1CCN(c2cc(N3CCCC3)nc(N3CCCC3)n2)CC1 (stereo not drawn) [Example 22] | – | 13 µM | – | –
OC(COc1cccc2ccccc12)CN1CCCN(c2cc(N3CCCC3)nc(N3CCCC3)n2)CC1 (stereo not drawn) [Example 23] | – | 9 µM | 52% | IC50 [2]: 13 µM
Nc1cc(N2CCN(CC(O)COc3ccc4ccccc4c3)CC2)nc(N)n1 (stereo not drawn) [Example 24] | – | – | 20% | –
Nc1cc(N2CCCN(CC(O)COc3ccc4ccccc4c3)CC2)nc(N)n1 (stereo not drawn) [Example 25] | – | – | 35% | –
OC(COc1ccc2ccccc2c1)CN1CCN(c2cc(N3CCCC3)nc(N3CCCC3)n2)CC1 (stereo not drawn) [Example 26] | – | 19 µM | 45% | IC50 [2]: 59 µM
O=C1CCCc2cc(OCC(O)CN3CCCN(c4cc(N5CCCC5)nc(N5CCCC5)n4)CC3)ccc21 (stereo not drawn) [Example 30] | – | 12 µM | 42% | IC50 [2]: 16 µM

SMILES | IC50 [1] | IC50 [3] | inhibition in vivo at 25 mg/kg [4] | further results
Nc1cc(N2CCN(C(=O)COc3cccc4ccccc34)CC2)nc(N)n1 [Example 31, 1-[2-(1-Naphthyloxy)acetyl]-4-(2,6-diamino-4-pyrimidinyl)piperazine] | – | – | 79% | –
O=C(COc1cccc2ccccc12)N1CCN(c2cc(N3CCCC3)nc(N3CCCC3)n2)CC1 [Example 33, 1-[2-(1-Naphthyloxy)acetyl]-4-[2,6-di(1-pyrrolidinyl)-4-pyrimidinyl]piperazine] | – | 20 µM | 53% | –
O=C(COc1cccc2ccccc12)N1CCCN(c2cc(N3CCCC3)nc(N3CCCC3)n2)CC1 [Example 36] | – | 30 µM | 24% | –
Nc1nc(N)c2nc(-c3ccc(OCC(O)CN4CCN(C56CC7CC(CC(C7)C5)C6)CC4)cc3)c(N)nc2n1 (stereo not drawn) [Example 37, 6-[4-[3-[4-(1-Adamantyl)-1-piperazinyl]-2-hydroxypropoxy]phenyl]-2,4,7-triaminopteridine] | 17 µM | – | 35% | –
Nc1nc(N)c2nc(-c3ccc(OCC(O)CN4CCN(C(c5ccccc5)(c5ccccc5)c5ccccc5Cl)CC4)cc3)c(N)nc2n1 (stereo not drawn) [Example 39] | – | – | 34% | –
Nc1nc(N)c2nc(-c3ccc(OCC(O)CN4CCCNCC4)cc3)c(N)nc2n1 (stereo not drawn) [Example 51] | 28 µM | – | – | –
Nc1nc(N)c2nc(-c3ccc(NCC(O)CN4CCNCC4)cc3)c(N)nc2n1 (stereo not drawn) [Example 52] | 12 µM | – | 34% | –
CN(CC(O)CN1CCNCC1)c1ccc(-c2nc3c(N)nc(N)nc3nc2N)cc1 (stereo not drawn) [Example 53] | 0.9 µM | – | 56% | –
Nc1nc(N)c2nc(-c3ccc(SCC(O)CN4CCNCC4)cc3)c(N)nc2n1 (stereo not drawn) [Example 54] | 17 µM | – | 56% | –
Nc1nc(N)c2nc(-c3ccc(NC(=O)CN4CCNCC4)cc3)c(N)nc2n1 [Example 55] | – | – | 47% | –
Nc1nc(N)c2nc(-c3ccc(NCCCN4CCNCC4)cc3)c(N)nc2n1 [Example 56, 6-[4-[3-(1-Piperazinyl)propylamino]phenyl]-2,4,7-triamino-pteridine] | – | – | 44% | –
Nc1nc2nc(N3CCN(C45CC6CC(CC(C6)C4)C5)CC3)nc(N)c2nc1-c1ccccc1 [Example 57, 1-(1-Adamantyl)-4-(4,7-diamino-6-phenyl-2-pteridinyl)piperazine] | 49 µM | – | – | –
Nc1nc2nc(N3CCNCC3)nc(N)c2nc1-c1ccccc1 [Example 58, 1-(4,7-Diamino-6-phenyl-2-pteridinyl)piperazine] | 38 µM | – | – | –
Nc1nc(N2CCNCC2)c2nc(-c3ccccc3)c(N)nc2n1 [Example 59, 1-(2,7-Diamino-6-phenyl-4-pteridinyl)piperazine] | – | – | 30% | –
C[C@@H]1C[C@H]2[C@@H]3CCC4=CC(=O)C=C[C@]4(C)C3=CC[C@]2(C)[C@H]1C(=O)CN1CCN(c2cc(N3CCCC3)nc(N3CCCC3)n2)CC1 [Example U74006F, 21-[4-[2,6-di(1-pyrrolidinyl)-4-pyrimidinyl]-1-piperazinyl]-16α-methyl-pregna-1,4,9(11)-triene-3,20-dione, reference compound] | > 100 µM | 39 µM | 59% | LD50 (acute toxicity in rats): > 1000 mg/kg; Improvement (in the neurological state) (acute brain injury; 30 mg/kg): 77%; IC50 [2]: > 100 µM
Cc1c(C)c2c(c(C)c1O)CCC(C)(CN1CCN(c3cc(N4CCCC4)nc(N4CCCC4)n3)CC1)O2 (stereo not drawn) [Example U78517F, 2-[[4-[2,6-di(1-pyrrolidinyl)-4-pyrimidinyl]-1-piperazinyl]methyl]-6-hydroxy-2,5,7,8-tetramethyl-3,4-dihydro-2H-1-benzopyrane, reference compound] | > 50 µM | 0.3 µM | 20% | Improvement (in the neurological state) (acute brain injury; 20 mg/kg): 31%; IC50 [2]: 0.7 µM
Cc1c(C)c2c(c(C)c1O)CCC(C)(CCCC(C)CCCC(C)CCCC(C)C)O2 (stereo not drawn) [α-tocopherol, reference compound] | 2 µM | 7 µM | – | Improvement (in the neurological state) (acute brain injury; 30 mg/kg): 97%; IC50 [2]: > 100 µM

From patent publication US5380724A, “Piperazine and homopiperazine derivatives, pharmaceutical compositions containing them and process for preparing same” (Gyogyszerkutato Intezet KFT, priority 1992, dated 1995)
